# In patent publication US12310975B2, “Modulators of BCL6 proteolysis and associated methods of use” (Arvinas Operations, Inc., priority 2019, dated 2025):
# Target: BCL6 (Homo sapiens (Human), UniProt P41182)
# Assay: Immunofluorescence high content imaging of BCL6 degradation in T47D cells
# Assay type: cell-based
# Conditions: T47D cells
# Procedure, shortened: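 T47D cells were treated for 3 days at 37 °C with 11-point 3-fold dilutions of bifunctional degrader (final top 0.1 or 1 μM). BCL6 was detected by immunofluorescence after PFA fixation, with Hoechst and cell mask counterstains, and imaged at 10×, 4 fields/well.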
Dmax [%],IC50 [nM],Structure (SMILES)
–,≥ 100,"CNC(=O)COc1cc2cc(Nc3nc(N4CCN(CC5CCN(C(=O)c6ccc(N7CCC(=O)NC7=O)c(OC)c6)CC5)CC4)ncc3Cl)ccc2n(C(C)C)c1=O [compound 408, 2-{[6-({5-chloro-2-[4-({1-[4-(2,4-dioxo-1,3-diazinan-1-yl)-3-methoxybenzoyl]piperidin-4-yl}methyl)piperazin-1-yl]pyrimidin-4-yl}amino)-2-oxo-1-(propan-2-yl)-1,2-dihydroquinolin-3-yl]oxy}-N-methylacetamide]"
< 50,< 10,"CNC(=O)COc1cc2cc(Nc3nc(N4CCN(CC5CCC6(CC5)CN(c5ccc(OC)c7c5C(=O)N(C5CCC(=O)NC5=O)C7=O)C6)CC4)ncc3Cl)ccc2n(C(C)C)c1=O (centres unmarked) [compound 411, 2-{[6-({5-chloro-2-[4-({2-[2-(2,6-dioxopiperidin-3-yl)-7-methoxy-1,3-dioxo-2,3-dihydro-1H-isoindol-4-yl]-2-azaspiro[3.5]nonan-7-yl}methyl)piperazin-1-yl]pyrimidin-4-yl}amino)-2-oxo-1-(propan-2-yl)-1,2-dihydroquinolin-3-yl]oxy}-N-methylacetamide]"
≥ 70,< 10,"CNC(=O)COc1cc2cc(Nc3nc(N4CCC(OC5CC6(C5)CN(c5ccc7c(c5)CN(C5CCC(=O)NC5=O)C7=O)C6)CC4)ncc3Cl)ccc2n(C(C)C)c1=O (centres unmarked) [compound 412, 2-{[6-({5-chloro-2-[4-({2-[2-(2,6-dioxopiperidin-3-yl)-1-oxo-2,3-dihydro-1H-isoindol-5-yl]-2-azaspiro[3.3]heptan-6-yl}oxy)piperidin-1-yl]pyrimidin-4-yl}amino)-2-oxo-1-(propan-2-yl)-1,2-dihydroquinolin-3-yl]oxy}-N-methylacetamide]"
50 to 70,< 10,"CNC(=O)COc1cc2cc(Nc3nc(N4CCC5(CC4)CN(CC4CCN(c6ccc7c(c6)CN(C6CCC(=O)NC6=O)C7=O)CC4)C5)ncc3Cl)ccc2n(C(C)C)c1=O (centres unmarked) [compound 413, 2-{[6-({5-chloro-2-[2-({1-[2-(2,6-dioxopiperidin-3-yl)-1-oxo-2,3-dihydro-1H-isoindol-5-yl]piperidin-4-yl}methyl)-2,7-diazaspiro[3.5]nonan-7-yl]pyrimidin-4-yl}amino)-2-oxo-1-(propan-2-yl)-1,2-dihydroquinolin-3-yl]oxy}-N-methylacetamide]"
≥ 70,–,"CNC(=O)COc1cc2cc(Nc3nc(N4CCN(CC5CCN(c6cc(OC)cc7c6C(=O)N(C6CCC(=O)NC6=O)C7=O)CC5)CC4)ncc3Cl)ccc2n(C(C)C)c1=O (centres unmarked) [compound 414, 2-{[6-({5-chloro-2-[4-({1-[2-(2,6-dioxopiperidin-3-yl)-6-methoxy-1,3-dioxo-2,3-dihydro-1H-isoindol-4-yl]piperidin-4-yl}methyl)piperazin-1-yl]pyrimidin-4-yl}amino)-2-oxo-1-(propan-2-yl)-1,2-dihydroquinolin-3-yl]oxy}-N-methylacetamide]"
–,≥ 100,"CNC(=O)COc1cc2cc(Nc3nc(N4CCC(CN5CCC(c6ccc(N7CCC(=O)NC7=O)c(OC)c6)CC5)CC4)ncc3Cl)ccc2n(C(C)C)c1=O [compound 415, 2-{[6-({5-chloro-2-[4-({4-[4-(2,4-dioxo-1,3-diazinan-1-yl)-3-methoxyphenyl]piperidin-1-yl}methyl)piperidin-1-yl]pyrimidin-4-yl}amino)-2-oxo-1-(propan-2-yl)-1,2-dihydroquinolin-3-yl]oxy}-N-methylacetamide]"
–,≥ 100,"CNC(=O)COc1cc2cc(Nc3nc(N4CCC(CN5CCC(c6cccc(N7CCC(=O)NC7=O)c6)CC5)CC4)ncc3Cl)ccc2n(C(C)C)c1=O [compound 416, 2-{[6-({5-chloro-2-[4-({4-[3-(2,4-dioxo-1,3-diazinan-1-yl)phenyl]piperidin-1-yl}methyl)piperidin-1-yl]pyrimidin-4-yl}amino)-2-oxo-1-(propan-2-yl)-1,2-dihydroquinolin-3-yl]oxy}-N-methylacetamide]"
≥ 70,< 10,"CNC(=O)COc1cc2cc(Nc3nc(N4CCC(CN5CCC6(CC5)CN(c5ccc7c(c5)CN(C5CCC(=O)NC5=O)C7=O)C6)CC4)ncc3Cl)ccc2n(C(C)C)c1=O (centres unmarked) [compound 417, 2-{[6-({5-chloro-2-[4-({2-[2-(2,6-dioxopiperidin-3-yl)-1-oxo-2,3-dihydro-1H-isoindol-5-yl]-2,7-diazaspiro[3.5]nonan-7-yl}methyl)piperidin-1-yl]pyrimidin-4-yl}amino)-2-oxo-1-(propan-2-yl)-1,2-dihydroquinolin-3-yl]oxy}-N-methylacetamide]"

# The next lines start with the compound.
Structure (SMILES),Dmax [%],IC50 [nM]
"CNC(=O)COc1cc2cc(Nc3nc(N4CCN(CC5CCN(c6cccc(C(=O)NC7CCC(=O)NC7=O)[n+]6[O-])CC5)CC4)ncc3Cl)ccc2n(C(C)C)c1=O (centres unmarked) [compound 397, 2-[4-({4-[5-chloro-4-({3-[(methylcarbamoyl)methoxy]-2-oxo-1-(propan-2-yl)-1,2-dihydroquinolin-6-yl}amino)pyrimidin-2-yl]piperazin-1-yl}methyl)piperidin-1-yl]-6-[(2,6-dioxopiperidin-3-yl)carbamoyl]pyridin-1-ium-1-olate]",< 50,10 to 50
"CNC(=O)COc1cc2cc(Nc3nc(N4CCN(CC5CCCN5c5cccc6c5C(=O)N(C5CCC(=O)NC5=O)C6=O)CC4)ncc3Cl)ccc2n(C(C)C)c1=O (centres unmarked) [compound 398, 2-{[6-({5-chloro-2-[4-({1-[2-(2,6-dioxopiperidin-3-yl)-1,3-dioxo-2,3-dihydro-1H-isoindol-4-yl]pyrrolidin-2-yl}methyl)piperazin-1-yl]pyrimidin-4-yl}amino)-2-oxo-1-(propan-2-yl)-1,2-dihydroquinolin-3-yl]oxy}-N-methylacetamide]",< 50,< 10
"CNC(=O)COc1cc2cc(Nc3nc(N4CCN(CC5CCN(C(=O)c6ccc(OC)c(N7CCC(=O)NC7=O)c6)CC5)CC4)ncc3Cl)ccc2n(C(C)C)c1=O [compound 401, 2-{[6-({5-chloro-2-[4-({1-[3-(2,4-dioxo-1,3-diazinan-1-yl)-4-methoxybenzoyl]piperidin-4-yl}methyl)piperazin-1-yl]pyrimidin-4-yl}amino)-2-oxo-1-(propan-2-yl)-1,2-dihydroquinolin-3-yl]oxy}-N-methylacetamide]",< 50,< 10
"CNC(=O)COc1cc2cc(Nc3nc(N4CCN(CC5CCN(C(=O)c6ccc(N7CCC(=O)NC7=O)cc6)CC5)CC4)ncc3Cl)ccc2n(C(C)C)c1=O [compound 402, 2-{[6-({5-chloro-2-[4-({1-[4-(2,4-dioxo-1,3-diazinan-1-yl)benzoyl]piperidin-4-yl}methyl)piperazin-1-yl]pyrimidin-4-yl}amino)-2-oxo-1-(propan-2-yl)-1,2-dihydroquinolin-3-yl]oxy}-N-methylacetamide]",–,≥ 100
"CNC(=O)COc1cc2cc(Nc3nc(N4CCC(O[C@H]5C[C@H](N6CCC(c7ccc8c(c7)C(=O)N(C7CCC(=O)NC7=O)C8=O)CC6)C5)CC4)ncc3Cl)ccc2n(C(C)C)c1=O (some centres unmarked) [compound 403, 2-({6-[(5-chloro-2-{4-[(1r,3r)-3-{4-[2-(2,6-dioxopiperidin-3-yl)-1,3-dioxo-2,3-dihydro-1H-isoindol-5-yl]piperidin-1-yl}cyclobutoxy]piperidin-1-yl}pyrimidin-4-yl)amino]-2-oxo-1-(propan-2-yl)-1,2-dihydroquinolin-3-yl}oxy)-N-methylacetamide]",50 to 70,< 10
"CNC(=O)COc1cc2cc(Nc3nc(N4CCN(CC5CCN(c6cc7c(cc6OC)C(=O)N(C6CCC(=O)NC6=O)C7=O)CC5)CC4)ncc3Cl)ccc2n(C(C)C)c1=O (centres unmarked) [compound 404, 2-{[6-({5-chloro-2-[4-({1-[2-(2,6-dioxopiperidin-3-yl)-6-methoxy-1,3-dioxo-2,3-dihydro-1H-isoindol-5-yl]piperidin-4-yl}methyl)piperazin-1-yl]pyrimidin-4-yl}amino)-2-oxo-1-(propan-2-yl)-1,2-dihydroquinolin-3-yl]oxy}-N-methylacetamide]",≥ 70,10 to 50
"CNC(=O)COc1cc2cc(Nc3nc(N4CC5(CC(OC6CCN(c7ccc8c(c7)C(=O)N(C7CCC(=O)NC7=O)C8=O)CC6)C5)C4)ncc3Cl)ccc2n(C(C)C)c1=O (centres unmarked) [compound 405, 2-{[6-({5-chloro-2-[6-({1-[2-(2,6-dioxopiperidin-3-yl)-1,3-dioxo-2,3-dihydro-1H-isoindol-5-yl]piperidin-4-yl}oxy)-2-azaspiro[3.3]heptan-2-yl]pyrimidin-4-yl}amino)-2-oxo-1-(propan-2-yl)-1,2-dihydroquinolin-3-yl]oxy}-N-methylacetamide]",–,≥ 100
"CNC(=O)COc1cc2cc(Nc3nc(N4CC5(CC(OC6CCN(c7cccc8c7C(=O)N(C7CCC(=O)NC7=O)C8=O)CC6)C5)C4)ncc3Cl)ccc2n(C(C)C)c1=O (centres unmarked) [compound 406, 2-{[6-({5-chloro-2-[6-({1-[2-(2,6-dioxopiperidin-3-yl)-1,3-dioxo-2,3-dihydro-1H-isoindol-4-yl]piperidin-4-yl}oxy)-2-azaspiro[3.3]heptan-2-yl]pyrimidin-4-yl}amino)-2-oxo-1-(propan-2-yl)-1,2-dihydroquinolin-3-yl]oxy}-N-methylacetamide]",≥ 70,< 10
"CNC(=O)COc1cc2cc(Nc3nc(N4CCN(CC5CCN(C(=O)c6cccc(N7CCC(=O)NC7=O)c6)CC5)CC4)ncc3Cl)ccc2n(C(C)C)c1=O [compound 407, 2-{[6-({5-chloro-2-[4-({1-[3-(2,4-dioxo-1,3-diazinan-1-yl)benzoyl]piperidin-4-yl}methyl)piperazin-1-yl]pyrimidin-4-yl}amino)-2-oxo-1-(propan-2-yl)-1,2-dihydroquinolin-3-yl]oxy}-N-methylacetamide]",–,≥ 100
"CNC(=O)COc1cc2cc(Nc3nc(N4CCC(O[C@H]5C[C@H](N6CCC(c7cccc8c7C(=O)N(C7CCC(=O)NC7=O)C8=O)CC6)C5)CC4)ncc3Cl)ccc2n(C(C)C)c1=O (some centres unmarked) [compound 409, 2-({6-[(5-chloro-2-{4-[(1r,3r)-3-{4-[2-(2,6-dioxopiperidin-3-yl)-1,3-dioxo-2,3-dihydro-1H-isoindol-4-yl]piperidin-1-yl}cyclobutoxy]piperidin-1-yl}pyrimidin-4-yl)amino]-2-oxo-1-(propan-2-yl)-1,2-dihydroquinolin-3-yl}oxy)-N-methylacetamide]",50 to 70,< 10
